Holding throughout (experiment): NCI tumour cell line growth inhibition, 48 h
Test [1] deals with KM-20L2.
In test [2] the test system is DMS-114.
Test [3] has as its system XF498.
The test system of test [4] is SNB-78.
The subject of test [5] is HOP-18.
Test [6] concerns LXFL 529.
Test [7] concerns T47D.
The subject of test [8] is BT-549.

We go through 15 compounds from ChEMBL document CHEMBL1201862, “PubChem BioAssay data set” (2004).

Structures are written as SMILES.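 Exposure lasted 48 hours, with cells grown in 96-well plates and compounds tested at five concentrations. The concentration for 50% growth inhibition is given as GI50.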 Active and inactive are the calls of the source. Rule as the data show it: active = GI50 up to about 1.1 µM and inactive = higher. Residues, ends and D or L forms follow the SMILES beside them. *: point of attachment. Boc = CC(C)(C)OC(=O)*; OBn = c1ccc(CO*)cc1

`Cc1c2n(c3ccccc13)CC1C2N(C)OC1(C)C` (stereo unspecified): the GI50 in test [1], in test [2], in test [3] and in test [4] was > 100 µM (inactive) in each case.
As to `CCOC(=O)C1(c2ccccc2)CCCNCC1` (stereo unspecified), the GI50 in test [1], in test [5], in test [6] and in test [4] was > 100 µM (inactive) throughout.
Turning to `N#CC(C(=O)C(=O)NCCCNC(=O)C(=O)C(C#N)c1ccccc1)c1ccccc1` (stereo unspecified), the GI50 in test [1], in test [5], in test [6], in test [2] and in test [4] was > 100 µM (inactive) each time.
Turning to `Cc1ccc(S(=O)(=O)C2c3nc4ccccc4cc3-c3nc4ccccc4nc32)cc1` (stereo unspecified), the GI50 in test [1] was > 100 µM (inactive); in test [6], > 100 µM (inactive); in test [2], > 100 µM (inactive); in test [3], > 100 µM (inactive); in test [4] it was 67 µM (inactive).
Regarding `NC(=S)N/N=C1\C(=O)N(c2cccc([N+](=O)[O-])c2)C(=O)C1C(=O)Nc1cccc([N+](=O)[O-])c1` (stereo unspecified), the GI50 in test [1] was > 100 µM (inactive); in test [5] it was 65.3 µM (inactive); in test [6], > 100 µM (inactive); in test [2], > 100 µM (inactive); in test [4] it was > 100 µM (inactive).
Consider `O=C(O)c1c[nH]c2c(ccc3ncccc32)c1=O`, for which the GI50 in test [1], in test [5], in test [6], in test [2] and in test [4] was > 100 µM (inactive) throughout.
As for `COc1ccc(Nc2nnc(-c3nsc4ccccc34)s2)cc1`, the GI50 in test [1] is > 100 µM (inactive); in test [7], 20.1 µM (inactive); in test [5], 0.0149 µM (active); in test [6], > 100 µM (inactive); in test [2], 59.4 µM (inactive); in test [4], > 100 µM (inactive).
On to `O=C(NS(=O)(=O)c1ccccc1)C(Cc1ccccc1)C(Cc1ccccc1)C(=O)NS(=O)(=O)c1ccccc1` (stereo unspecified), for which the GI50 in test [1], in test [5], in test [6] and in test [2] was > 100 µM (inactive) throughout.
Turning to `NNc1ncnc2cccc(Cl)c12`, the GI50 in test [7] and in test [8] was > 100 µM (inactive) each time.
On to `CC(C)N(C(=O)C12C3(C(=O)C(C)(C)C)C4C5(C#N)C3C1(C(=O)C(C)(C)C)C5C42C(=O)C(C)(C)C)C(C)C` (stereo unspecified), for which the GI50 in test [7] and in test [8] was > 100 µM (inactive) throughout.
As for `O=S1(=O)c2ccccc2N(O)C2=NCCN21`, the GI50 in test [1], in test [6], in test [2] and in test [4] was > 100 µM (inactive) each time.
On to `CC1OC(OC2C(OC(=O)[C@]34CCC(C)(C)CC3C3=CCC5[C@@]6(C)C[C@H](O)[C@H](OC7OC(COC8OC(CO)C(O)C(O)C8O)C(O)C(O)C7O)[C@@](C)(C(=O)O)C6CC[C@@]5(C)C3(C)CC4)OCC(O)C2O)C(O)C(O)C1OC1OCC(O)C(O)C1O` (stereo partly specified), for which the GI50 in test [1], in test [5], in test [2] and in test [4] was > 100 µM (inactive) each time.
`CC(NC(=O)CNC(=O)OC(C)(C)C)C(=O)NC(Cc1ccccc1)C(=O)OCc1ccccc1` (stereo not drawn) (Boc-Gly-Ala-Phe-OBn; configuration not given here): the GI50 in test [7] and in test [8] was > 100 µM (inactive) throughout.
Regarding `CC(C)=CCc1c2c(c3occ(-c4ccc(O)cc4)c(=O)c3c1O)CC(C(C)(C)O)O2` (stereo unspecified) [SENEGALENSIN], the results for the GI50 in test [7] and in test [8] were 10.3 µM (inactive) and 17 µM (inactive), respectively.
Regarding `CCCC(=O)OCC(COC(=O)CCC)OC(=O)CCC` [TRIBUTYRIN], the GI50 was > 100 µM (inactive) in test [7] and 97.3 µM (inactive) in test [8].
